Patent US11040981B2, “Pyrrolotriazine compounds and methods of inhibiting TAM kinases” (Syros Pharmaceuticals, Inc., priority 2017, dated 2021)

Experiments:
MERTK = biological target: T1, MERTK (Homo sapiens, UniProt Q12866); experiment: TR-FRET kinase activity assay, MERTK; format: biochemical; conditions: for IC50: TR-FRET activity assay, ATP at Km, 60 minutes, read-out: Mer IC50; for FLT3/Mer ratio (FLT3 IC50/Mer IC50): ratio of Mer to FLT3: FLT3 IC50/Mer IC50
T1 sequence (Q12866 21-999): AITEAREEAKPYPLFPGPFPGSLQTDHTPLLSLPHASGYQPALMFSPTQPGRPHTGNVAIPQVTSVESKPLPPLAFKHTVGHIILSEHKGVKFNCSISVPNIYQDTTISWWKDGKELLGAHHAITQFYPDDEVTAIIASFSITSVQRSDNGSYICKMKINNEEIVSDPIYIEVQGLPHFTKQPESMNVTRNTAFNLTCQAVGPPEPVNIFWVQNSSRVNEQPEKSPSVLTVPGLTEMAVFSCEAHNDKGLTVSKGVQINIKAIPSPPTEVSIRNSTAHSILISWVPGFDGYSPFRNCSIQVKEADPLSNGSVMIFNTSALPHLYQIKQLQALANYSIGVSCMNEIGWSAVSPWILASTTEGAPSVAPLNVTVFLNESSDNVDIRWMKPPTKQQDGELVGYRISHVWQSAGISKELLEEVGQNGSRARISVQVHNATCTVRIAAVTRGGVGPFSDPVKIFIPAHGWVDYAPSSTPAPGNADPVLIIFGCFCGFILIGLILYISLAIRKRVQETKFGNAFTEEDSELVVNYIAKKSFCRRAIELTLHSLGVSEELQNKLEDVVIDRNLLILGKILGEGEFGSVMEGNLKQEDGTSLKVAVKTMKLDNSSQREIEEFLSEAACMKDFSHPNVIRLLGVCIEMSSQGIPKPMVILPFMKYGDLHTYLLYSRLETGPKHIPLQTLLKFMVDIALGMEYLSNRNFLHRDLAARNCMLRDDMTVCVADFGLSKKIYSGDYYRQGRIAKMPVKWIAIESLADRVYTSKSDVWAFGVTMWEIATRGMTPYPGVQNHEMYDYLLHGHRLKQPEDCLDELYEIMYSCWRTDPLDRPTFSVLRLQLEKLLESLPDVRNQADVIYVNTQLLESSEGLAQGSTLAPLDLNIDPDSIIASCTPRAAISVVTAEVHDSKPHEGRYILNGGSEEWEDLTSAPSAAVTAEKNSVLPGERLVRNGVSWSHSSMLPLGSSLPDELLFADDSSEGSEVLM
Method in brief: (§1)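 IC50 reflects the drop in TR-FRET between Eu anti-phosphotyrosine antibody and labelled peptide after a 60-minute room-temperature reaction. Buffer was 50 mM HEPES pH 7.5 with 10 mM MgCl2, 1 mM EGTA, 0.01% Brij 35 and 1 mM DTT, with ATP at Km per enzyme and EDTA quench.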

TYRO3 = biological target: T2, TYRO3 (Homo sapiens, UniProt Q06418); experiment: TR-FRET kinase activity assay, TYRO3; format: biochemical; conditions: ATP at Km, 60 minutes
T2 sequence (Q06418 41-890): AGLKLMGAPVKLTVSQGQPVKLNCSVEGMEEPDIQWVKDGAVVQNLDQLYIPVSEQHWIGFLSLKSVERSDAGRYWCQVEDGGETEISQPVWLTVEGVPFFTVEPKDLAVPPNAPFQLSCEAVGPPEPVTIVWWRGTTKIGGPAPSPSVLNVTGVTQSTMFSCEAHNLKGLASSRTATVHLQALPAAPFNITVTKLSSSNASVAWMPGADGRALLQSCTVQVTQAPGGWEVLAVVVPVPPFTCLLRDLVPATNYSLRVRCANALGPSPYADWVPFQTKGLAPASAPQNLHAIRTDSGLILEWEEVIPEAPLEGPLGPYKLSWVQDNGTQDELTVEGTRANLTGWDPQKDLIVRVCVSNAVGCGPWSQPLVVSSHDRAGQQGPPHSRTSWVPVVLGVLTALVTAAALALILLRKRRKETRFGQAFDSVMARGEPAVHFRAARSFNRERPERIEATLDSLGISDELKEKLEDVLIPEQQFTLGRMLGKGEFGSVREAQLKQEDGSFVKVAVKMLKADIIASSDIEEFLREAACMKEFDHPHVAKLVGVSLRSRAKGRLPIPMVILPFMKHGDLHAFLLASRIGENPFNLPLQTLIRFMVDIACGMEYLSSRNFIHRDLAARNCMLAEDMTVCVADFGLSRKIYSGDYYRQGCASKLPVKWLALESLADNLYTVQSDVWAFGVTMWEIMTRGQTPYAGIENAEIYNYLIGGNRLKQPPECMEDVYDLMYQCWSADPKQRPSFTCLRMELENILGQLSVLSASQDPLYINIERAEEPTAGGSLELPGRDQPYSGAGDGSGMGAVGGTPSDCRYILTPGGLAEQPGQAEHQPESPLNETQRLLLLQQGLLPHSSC
Method in brief: as §1

Compound | IC50 (MERTK) [nM] | FLT3/Mer ratio (FLT3 IC50/Mer IC50) (MERTK) | IC50 (TYRO3) [nM]
COC[C@H](C)Nc1ncc2c(-c3ccnc(N4CCN(C(C)=O)CC4)c3)cc([C@H]3CC[C@H](O)CC3)n2n1 [Compound 344] | ≤ 100 | +++ (“+++” represents a ratio of >100) | ≤ 100
COCCOc1cc(-c2cc([C@H]3CC[C@H](O)CC3)n3nc(N[C@@H](C)COC)ncc23)ccn1 [Compound 345] | ≤ 100 | +++ (“+++” represents a ratio of >100) | ≤ 100
